Structures can show the parent of a compound that is named as a salt. Where two headings read alike, the source gives them in different places.
Assays:
male rats = settings: rat, in vivo, po, 20 mg/kg
Description: Two tests were carried out on male rats, namely a determination of the "maximum tolerable dose" (MTD) and a test using multiple peroral doses. In addition, a LD50 test was carried out intravenously on mice.
At this test the substances were administered perorally in a dose of 20 mg per kg. as solutions or suspensions once a day for 5 days to groups of 5 animals. Clinical observations were made every day and the above hematological parameters were measured on the third day of the test.

PAI-1 = experiment: Inhibition of plasminogen activator inhibitor (PAI-1) from blood platelets (fibrinolytic activity); type: cell-based, human; settings: 50 μM, 60 minutes; for % Inhibition of PAI-1 activity: compared to control; for PAI-1 activity: human PRP, control 3.24
Description: Compounds according to the invention were tested for their inhibition of plasminogen activator inhibitor (PAI). An established thrombus comprises aggregated platelets cohered by fibrin. The organism has a fibrinolyric system for maintaining normal physiological conditions. Endogenous plasminogen is activated to plasmin (fibrinolysin, that is a proteolytic enzyme decomposing fibrin) by means of a tissue plasminogen activator (t-PA). The platelets include the enzyme PAI-1 inhibiting the activation of plasminogen to plasmin, and thus also the decomposition of fibrin.
A general stimulation of the fibrinolytic system can cause serious hemostatic side effects (haemorrhages). A specific inhibition of PAI-1 induces an increased fibrinolysis in areas with many platelets, which is exactly the case in thrombi. As a result a thrombolytic effect is obtained.
Human PRP prepared by slight centrifugation as previously mentioned is used, but at a low temperature (4° C.). By incubation of PRP (1 ml in a plastic tube) during a slight shaking at 37° C. the PAI-1 activity is liberated, said PAI-1 activity being measured spectrophotometrically by means of a two-step procedure using commercial kits (Spectrolyse™/fibrin kit from BIOPOOL, Sweden).
The PAI-1 activity of the control PRP and PRP incubated with each of 6 compounds according to the invention and the reference substance sodium niroprusside (NNP) (50 μM of each for 60 minutes) appear from Table 6.

[1] = molecular target: T1, soluble guanylate cyclase (Homo sapiens, UniProt Q02153); experiment: Stimulation of guanylate cyclase from blood platelets (RIA); type: biochemical; settings: 37° C.
T1 construct: The guanylate cyclase activity in the supernatant after incubation with and without the test substance; endogenous in cells; host or cells: human blood platelets, supernatant of homogenate
T1 sequence (Q02153 1-619): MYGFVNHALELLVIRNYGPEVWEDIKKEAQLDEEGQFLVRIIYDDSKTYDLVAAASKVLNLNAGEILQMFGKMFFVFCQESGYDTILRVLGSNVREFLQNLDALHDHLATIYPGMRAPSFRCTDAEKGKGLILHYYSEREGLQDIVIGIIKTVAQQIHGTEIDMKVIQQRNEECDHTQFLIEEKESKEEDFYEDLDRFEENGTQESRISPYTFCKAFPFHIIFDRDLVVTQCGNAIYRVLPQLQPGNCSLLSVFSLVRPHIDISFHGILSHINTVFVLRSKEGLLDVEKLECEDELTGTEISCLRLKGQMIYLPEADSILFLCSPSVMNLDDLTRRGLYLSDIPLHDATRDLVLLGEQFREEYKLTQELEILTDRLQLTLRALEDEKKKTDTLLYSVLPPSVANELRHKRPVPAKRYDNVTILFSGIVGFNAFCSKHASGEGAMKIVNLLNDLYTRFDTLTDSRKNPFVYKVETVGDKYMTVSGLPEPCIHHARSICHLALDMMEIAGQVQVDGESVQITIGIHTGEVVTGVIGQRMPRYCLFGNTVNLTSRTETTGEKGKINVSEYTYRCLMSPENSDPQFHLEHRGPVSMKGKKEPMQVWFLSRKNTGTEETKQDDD
T1 sequence (Q02108 1-690 partner): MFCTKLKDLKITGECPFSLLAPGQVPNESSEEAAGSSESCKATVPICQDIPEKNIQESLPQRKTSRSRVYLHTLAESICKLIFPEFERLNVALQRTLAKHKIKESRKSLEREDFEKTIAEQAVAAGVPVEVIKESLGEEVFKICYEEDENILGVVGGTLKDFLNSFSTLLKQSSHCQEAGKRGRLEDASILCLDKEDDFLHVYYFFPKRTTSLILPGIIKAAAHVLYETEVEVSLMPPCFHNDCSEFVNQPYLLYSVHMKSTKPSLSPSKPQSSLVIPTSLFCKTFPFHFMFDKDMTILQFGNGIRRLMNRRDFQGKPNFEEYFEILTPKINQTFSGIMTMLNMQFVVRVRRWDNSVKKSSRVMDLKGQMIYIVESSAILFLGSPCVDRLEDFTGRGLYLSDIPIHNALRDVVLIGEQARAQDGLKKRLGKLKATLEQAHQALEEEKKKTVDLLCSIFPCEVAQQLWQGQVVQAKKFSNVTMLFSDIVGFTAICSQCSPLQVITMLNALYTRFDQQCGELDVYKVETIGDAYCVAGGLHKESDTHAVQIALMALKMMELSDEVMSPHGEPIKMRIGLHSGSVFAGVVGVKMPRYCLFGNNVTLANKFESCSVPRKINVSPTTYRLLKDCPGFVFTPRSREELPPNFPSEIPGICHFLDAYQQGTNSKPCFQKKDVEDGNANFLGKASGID

blood platelets = experiment: Inhibition of blood platelet aggregation (aggregometer, ADP); type: cell-based, human (healthy testees); settings: for IC50: Platelet, 0.05 h, read-out: IC50 (Inhibition of blood platelet aggregation)
Description: Compounds according to the invention were tested for their inhibition of clumping together (aggregation) of blood platelets (thrombocytes), which is the first phase of the formation of blood clots (thrombi). Such an inhibition may prevent the formation of blood clots and inhibit the development of new thrombi after a diagnosed thrombus.
Citrate stabilized ( 0.38% of sodium citrate, final concentration) venous blood from healthy testees is used, who have not used medicine for at least 8 days. Slight centrifugation (160×g for 10 minutes) results in PRP (blood plasma rich in platelets) which is pipetted. PPP (blood plasma poor in platelets) is obtained by an intense centrifugation (3000×g for 10 minutes) of the remaining blood. The light transmission is measured by the aggregometer (CHRONOLOG). PRP allows nearly no light transmitaaion, while PPP allows complete transmission of light. The PRP is placed in the aggregometer at 37° C. while being stirred by a magnet. Addition of a pro-aggregating substance causes the PRP to aggregate gradually and an increasing light transmission takes place at the same time. At complete aggregation a light transmission corresponding to PPP is obtained. Adnosine diphosphate (ADP) is used as pro-aggregating substance, said substance representing a basic biochemical mechanism for aggregation of blood platelets. The test substances are incubated for 3 minutes in PRP placed in the aggregometer at 37° C. during magnetic stirring. A predetermined positively aggregating dosage of adenosine diphosphate (ADP) (2 to 4 μM) is then added. […] A so-called IC50 -value (that is the concentration inhibiting the aggregation by 50% relative to the control aggregation) is calculated for each test substance by linear regression analysis (log concentration μM as constant ad abscissa and % inhibition as variable ad ordinate). The following known reference substances have been used: nitroglycerine (GTN), sodium nitroprusside (NNP) and SIN-1 (the active metabolite of molsidomine).

[2] = test system: polymorph nuclear leukocytes (PMNs), c-GMP; experiment: Stimulation of c-GMP content in PMNs; type: cell-based, human; settings: 37° C., 10 minutes
Description: Compounds according to the invention were tested for their ability to increase the content of cyclic guanosine monophosphate (c-GMP), to inhibit the synthesis of the leukotriene B4 (LTB4), and to inhibit the chemotactical movement of polymorph nuclear leukocytes (PMN). The polymorph nuclear leukocytes play a vital part in the cellular part of the inflammation process. At diseases, such as asthma, the mucuos membrane of the respiratory passages is swollen as a result of an inflammation with a significant infiltration of polymorph nuclear leukocytes (PMN's) in particular. Particularly effective substances for the treatment of asthma are such which in addition to relaxing the musculature in the respiratory passages also have an anti-inflammatory effect on the cellular phase of the inflammatory process, that is inhibiting the leukocyte function.
Isolated human PMNs are incubated at 37° C. for 10 minutes, whereafter the content of cyclic guanosine monophosphate (c-GMP) is measured. Further, the synthesis of the LTB4 is determined after stimulation with Ca-ionophore (A23187) and the chemotaxis (controlled movement) towards FMLP (a substance attracting the polymorph nuclear leukocytes, PMNs) is determined.
Three compounds according to the invention and the reference substance SIN-1 were tested for their ability to stimulate the content of cyclic guanosine monophosphate (c-GMP).

[3] = human PRP, ADP 2 to 4 μM, 3 min incubation, 37° C.

[NH-]c1n[n+](-c2cccc(Cl)c2Cl)no1 [Example 21, 3-(2-chloro-3-chlorophenyl)-1,2,3,4-oxatriazole-5-imine]
Clinical observations (male rats): N.R. | Hematological parameters (male rats): N.R. | Side effects (in words) (male rats): no side effects

N#Cc1ccc(-[n+]2noc([NH-])n2)cc1 [Example 8]
% Inhibition of PAI-1 activity (PAI-1): 44% | PAI-1 activity (PAI-1): 1.83 U/10^8 platelets | Guanylate cyclase activity ([1]; 0.01 μM): 897 pmole c-GMP/mg prot. × 15 minutes | Guanylate cyclase activity ([1]; 10 μm (so in the source)): 64192 pmole c-GMP/mg prot. × 15 minutes

[NH-]c1n[n+](-c2ccc(Cl)c(C(F)(F)F)c2)no1 [Example 18]
IC50 (blood platelets; Homo sapiens): 540 nM | % Inhibition of PAI-1 activity (PAI-1): 40% | PAI-1 activity (PAI-1): 1.93 U/10^8 platelets

[NH-]c1n[n+](-c2ccccc2C(F)(F)F)no1 [Example 2]
Guanylate cyclase activity ([1]; 0.01 μM): 411 pmole c-GMP/mg prot. × 15 minutes | Guanylate cyclase activity ([1]; 10 μm (so in the source)): 37920 pmole c-GMP/mg prot. × 15 minutes

O=C([N-]c1n[n+](-c2ccc(Cl)cc2Cl)no1)c1cccnc1 [Example 43]
Clinical observations (male rats): N.R. | Hematological parameters (male rats): N.R. | Side effects (in words) (male rats): no side effects

O=[N+]([O-])OCC(CO[N+](=O)[O-])O[N+](=O)[O-] [GTN, nitroglycerine, reference compound]
Inhibition of blood platelet aggregation (in words) (blood platelets; ADP, PRP): inactive | IC50 (blood platelets; [3]): 100000 nM

N#Cc1cccc(-[n+]2noc([NH-])n2)c1 [Example 7]
IC50 (blood platelets; [3]): 100 nM

[NH-]c1n[n+](-c2ccc(Cl)cc2F)no1 [Example 26]
Clinical observations (male rats): N.R. | Hematological parameters (male rats): N.R. | Side effects (in words) (male rats): no side effects

[NH-]c1n[n+](-c2ccc(Cl)c(Cl)c2)no1 [Example 24]
% Inhibition of PAI-1 activity (PAI-1): 34% | PAI-1 activity (PAI-1): 2.14 U/10^8 platelets | Guanylate cyclase activity ([1]; 0.01 μM): 2374 pmole c-GMP/mg prot. × 15 minutes | Guanylate cyclase activity ([1]; 10 μm (so in the source)): 59716 pmole c-GMP/mg prot. × 15 minutes | c-GMP in PMNs ([2]; 1 μM): 391 fmole/10^6 cells | c-GMP in PMNs ([2]; 10 μM): 965 fmole/10^6 cells | c-GMP in PMNs ([2]; 100 μM): 1078 fmole/10^6 cells

O=C([N-]c1n[n+](-c2cccc(C(F)(F)F)c2)no1)c1cccnc1 [Example 34]
IC50 (blood platelets; [3]): 190 nM

O=C([N-]c1n[n+](-c2cccc(C(F)(F)F)c2)no1)c1ccncc1 [Example 50]
IC50 (blood platelets; [3]): 90 nM | Clinical observations (male rats): N.R. | Hematological parameters (male rats): N.R. | Side effects (in words) (male rats): no side effects

[NH-]c1n[n+](-c2cccc(C(F)(F)F)c2)no1 [Example 3, 3-(3-trifluoromethylphenyl)-1,2,3,4-oxatriazole-5-imine hydrochloride]
Guanylate cyclase activity ([1]; 0.01 μM): 2499 pmole c-GMP/mg prot. × 15 minutes | Guanylate cyclase activity ([1]; 10 μm (so in the source)): 47529 pmole c-GMP/mg prot. × 15 minutes

[NH-]c1n[n+](-c2c(Cl)cccc2Cl)no1 [Example 23]
Guanylate cyclase activity ([1]; 0.01 μM): 383 pmole c-GMP/mg prot. × 15 minutes | Guanylate cyclase activity ([1]; 10 μm (so in the source)): 76915 pmole c-GMP/mg prot. × 15 minutes

Cc1c(Cl)cccc1-[n+]1noc([N-]C2CCCCC2)n1 [Example 63]
Guanylate cyclase activity ([1]; 0.01 μM): 1761 pmole c-GMP/mg prot. × 15 minutes | Guanylate cyclase activity ([1]; 10 μm (so in the source)): 72730 pmole c-GMP/mg prot. × 15 minutes
